Source: the kinase profiling compilation of Christmann-Franck et al. (2016)

Key:
Assay in all cases: radiometric filter-binding kinase assay
SRC (human) = SRC (human) (UniProt P12931)
CaMK1 (human) = CaMK1 (human) (UniProt Q14012)
PHKG1 (human) = PHKG1 (human) (UniProt Q16816)
JAK2 JH1 JH2 (human) = JAK2 JH1 JH2 (human) (UniProt O60674)
LCK (mouse) = conditions: accession and sequence are those of the human protein
DYRK1A (human) = DYRK1A (human) (UniProt Q13627)
PRKACA (human) = PRKACA (human) (UniProt P17612)
PIM2 (human) = PIM2 (human) (UniProt Q9P1W9)
Sequence of PIM2 (human) (Q9P1W9 whole entry, looked up): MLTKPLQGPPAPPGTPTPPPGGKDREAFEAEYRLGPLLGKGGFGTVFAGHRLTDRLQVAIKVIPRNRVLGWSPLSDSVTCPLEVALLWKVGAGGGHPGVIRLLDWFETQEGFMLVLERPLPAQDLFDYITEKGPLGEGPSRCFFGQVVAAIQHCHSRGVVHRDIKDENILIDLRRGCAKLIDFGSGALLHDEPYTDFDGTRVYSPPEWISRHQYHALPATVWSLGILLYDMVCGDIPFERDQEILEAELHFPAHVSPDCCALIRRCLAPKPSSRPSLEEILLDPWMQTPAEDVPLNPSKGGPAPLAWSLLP

CDK2 CCNA2 (human) = CDK2 CCNA2 (human) (UniProt P20248+P24941)
CAMKK2 (human) = CAMKK2 (human) (UniProt Q96RR4)
YES1 (human) = YES1 (human) (UniProt P07947)
Sequence of YES1 (human) (P07947 whole entry, looked up): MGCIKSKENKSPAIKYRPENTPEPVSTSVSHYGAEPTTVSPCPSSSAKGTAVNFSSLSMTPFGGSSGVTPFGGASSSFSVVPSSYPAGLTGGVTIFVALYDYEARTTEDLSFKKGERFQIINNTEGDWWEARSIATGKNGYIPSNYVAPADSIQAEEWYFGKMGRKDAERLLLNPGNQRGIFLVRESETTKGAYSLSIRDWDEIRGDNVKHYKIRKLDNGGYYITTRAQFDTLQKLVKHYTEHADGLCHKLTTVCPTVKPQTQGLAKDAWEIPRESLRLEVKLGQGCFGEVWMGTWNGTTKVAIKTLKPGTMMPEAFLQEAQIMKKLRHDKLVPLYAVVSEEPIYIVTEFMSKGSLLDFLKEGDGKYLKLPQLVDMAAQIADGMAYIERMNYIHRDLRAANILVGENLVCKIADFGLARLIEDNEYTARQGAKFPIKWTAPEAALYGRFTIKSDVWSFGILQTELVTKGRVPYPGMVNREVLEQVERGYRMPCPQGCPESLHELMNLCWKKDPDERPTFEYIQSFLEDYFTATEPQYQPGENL

MAP3K9 (human) = MAP3K9 (human) (UniProt P80192)
[1] = system: AKT2 (human), P31751 [S474D]
MAPK10 (human) = MAPK10 (human) (UniProt P53779)
MAPK13 (human) = MAPK13 (human) (UniProt O15264)
SYK (human) = SYK (human) (UniProt P43405)
PAK4 (human) = PAK4 (human) (UniProt O96013)
INSRR (human) = INSRR (human) (UniProt P14616)
RIPK2 (human) = RIPK2 (human) (UniProt O43353)
MST4 (human) = MST4 (human) (UniProt Q9P289)
PRKAA1 or PRKAA2 (rat) = conditions: accession and sequence are those of the human protein
NUAK1 (human) = NUAK1 (human) (UniProt O60285)
CSNK2A1 (human) = CSNK2A1 (human) (UniProt P68400)
IGF1R (human) = IGF1R (human) (UniProt P08069)
EPHB3 (human) = EPHB3 (human) (UniProt P54753)
MINK1 (human) = MINK1 (human) (UniProt Q8N4C8)
Sequence of MINK1 (human) (Q8N4C8 whole entry, looked up): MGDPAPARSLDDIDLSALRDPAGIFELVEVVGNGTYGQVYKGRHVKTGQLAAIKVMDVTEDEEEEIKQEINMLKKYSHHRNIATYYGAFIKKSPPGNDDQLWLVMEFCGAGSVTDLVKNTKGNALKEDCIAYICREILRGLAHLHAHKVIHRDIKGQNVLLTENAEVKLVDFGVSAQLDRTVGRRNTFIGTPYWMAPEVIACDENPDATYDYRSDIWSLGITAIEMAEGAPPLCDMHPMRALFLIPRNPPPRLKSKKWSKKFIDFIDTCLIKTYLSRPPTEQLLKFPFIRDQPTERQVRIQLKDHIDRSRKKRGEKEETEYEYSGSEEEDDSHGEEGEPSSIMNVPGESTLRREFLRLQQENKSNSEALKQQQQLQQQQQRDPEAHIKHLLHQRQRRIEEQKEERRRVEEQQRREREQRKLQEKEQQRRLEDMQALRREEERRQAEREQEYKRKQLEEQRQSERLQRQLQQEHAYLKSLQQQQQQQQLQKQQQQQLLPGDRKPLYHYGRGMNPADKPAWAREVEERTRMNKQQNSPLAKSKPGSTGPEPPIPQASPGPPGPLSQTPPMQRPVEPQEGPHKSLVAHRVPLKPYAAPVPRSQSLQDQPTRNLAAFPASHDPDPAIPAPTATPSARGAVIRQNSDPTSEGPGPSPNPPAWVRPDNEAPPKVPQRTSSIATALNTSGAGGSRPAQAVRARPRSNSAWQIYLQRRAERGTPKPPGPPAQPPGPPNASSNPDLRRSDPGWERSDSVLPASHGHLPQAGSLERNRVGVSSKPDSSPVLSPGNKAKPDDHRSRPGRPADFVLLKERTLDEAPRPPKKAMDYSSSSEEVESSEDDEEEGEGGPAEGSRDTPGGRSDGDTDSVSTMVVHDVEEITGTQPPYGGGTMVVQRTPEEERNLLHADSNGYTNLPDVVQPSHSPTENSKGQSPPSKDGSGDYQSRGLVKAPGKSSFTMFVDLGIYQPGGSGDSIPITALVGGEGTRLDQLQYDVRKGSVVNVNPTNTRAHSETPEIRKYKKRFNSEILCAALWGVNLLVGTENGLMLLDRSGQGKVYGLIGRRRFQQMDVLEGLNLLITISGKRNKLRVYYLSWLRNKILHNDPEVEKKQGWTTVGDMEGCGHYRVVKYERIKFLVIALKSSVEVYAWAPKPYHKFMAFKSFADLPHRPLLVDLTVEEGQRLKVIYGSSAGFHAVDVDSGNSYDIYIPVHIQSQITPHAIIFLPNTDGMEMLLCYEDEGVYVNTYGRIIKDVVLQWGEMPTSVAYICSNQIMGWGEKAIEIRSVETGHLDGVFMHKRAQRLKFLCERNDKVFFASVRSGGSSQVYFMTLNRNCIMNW

MAP3K11 (human) = MAP3K11 (human) (UniProt Q16584)
MKNK1 (human) = MKNK1 (human) (UniProt Q9BUB5)
AURKB (human) = AURKB (human) (UniProt Q96GD4)
INSR (human) = INSR (human) (UniProt P06213)
PRKCZ (human) = PRKCZ (human) (UniProt Q05513)
CHEK1 (human) = CHEK1 (human) (UniProt O14757)
NTRK1 (human) = NTRK1 (human) (UniProt P04629)
MAP2K1 (human) = MAP2K1 (human) (UniProt Q02750)
MARK3 (human) = MARK3 (human) (UniProt P27448)
Sequence of MARK3 (human) (P27448 whole entry, looked up): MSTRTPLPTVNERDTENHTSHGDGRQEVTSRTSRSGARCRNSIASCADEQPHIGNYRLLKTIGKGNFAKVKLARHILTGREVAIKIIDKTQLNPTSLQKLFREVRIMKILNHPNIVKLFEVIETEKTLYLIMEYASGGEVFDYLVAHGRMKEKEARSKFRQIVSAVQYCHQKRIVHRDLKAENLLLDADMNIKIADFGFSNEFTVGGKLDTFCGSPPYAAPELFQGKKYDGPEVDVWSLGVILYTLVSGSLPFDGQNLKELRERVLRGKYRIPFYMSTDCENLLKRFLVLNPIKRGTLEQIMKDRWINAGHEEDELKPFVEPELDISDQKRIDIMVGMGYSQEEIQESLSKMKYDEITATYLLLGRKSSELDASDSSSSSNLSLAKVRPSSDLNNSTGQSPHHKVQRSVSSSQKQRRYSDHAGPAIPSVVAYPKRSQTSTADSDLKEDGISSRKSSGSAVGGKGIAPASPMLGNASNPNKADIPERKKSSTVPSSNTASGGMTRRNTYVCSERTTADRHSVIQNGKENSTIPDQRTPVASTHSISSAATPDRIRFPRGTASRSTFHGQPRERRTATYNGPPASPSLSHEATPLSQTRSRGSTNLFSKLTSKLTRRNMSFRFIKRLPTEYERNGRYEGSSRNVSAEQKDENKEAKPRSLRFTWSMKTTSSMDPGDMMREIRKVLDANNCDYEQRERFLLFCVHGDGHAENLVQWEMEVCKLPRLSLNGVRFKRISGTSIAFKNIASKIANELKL

MARK4 (human) = MARK4 (human) (UniProt Q96L34)

Sequence of SRC (human) (P12931 whole entry, looked up): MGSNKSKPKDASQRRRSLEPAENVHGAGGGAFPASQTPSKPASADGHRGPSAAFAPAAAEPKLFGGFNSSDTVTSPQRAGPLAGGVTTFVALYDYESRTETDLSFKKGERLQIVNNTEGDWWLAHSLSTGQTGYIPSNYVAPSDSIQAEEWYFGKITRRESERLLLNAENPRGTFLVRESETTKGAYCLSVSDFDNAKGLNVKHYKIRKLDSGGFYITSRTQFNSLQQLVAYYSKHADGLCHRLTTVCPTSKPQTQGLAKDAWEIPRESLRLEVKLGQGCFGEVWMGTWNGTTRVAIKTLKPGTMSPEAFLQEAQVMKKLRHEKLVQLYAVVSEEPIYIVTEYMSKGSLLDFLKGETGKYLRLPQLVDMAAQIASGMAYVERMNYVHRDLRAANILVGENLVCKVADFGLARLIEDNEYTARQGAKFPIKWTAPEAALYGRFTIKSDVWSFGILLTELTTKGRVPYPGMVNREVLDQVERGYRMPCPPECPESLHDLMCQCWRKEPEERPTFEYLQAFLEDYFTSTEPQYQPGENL
Sequence of JAK2 JH1 JH2 (human) (O60674 whole entry, looked up): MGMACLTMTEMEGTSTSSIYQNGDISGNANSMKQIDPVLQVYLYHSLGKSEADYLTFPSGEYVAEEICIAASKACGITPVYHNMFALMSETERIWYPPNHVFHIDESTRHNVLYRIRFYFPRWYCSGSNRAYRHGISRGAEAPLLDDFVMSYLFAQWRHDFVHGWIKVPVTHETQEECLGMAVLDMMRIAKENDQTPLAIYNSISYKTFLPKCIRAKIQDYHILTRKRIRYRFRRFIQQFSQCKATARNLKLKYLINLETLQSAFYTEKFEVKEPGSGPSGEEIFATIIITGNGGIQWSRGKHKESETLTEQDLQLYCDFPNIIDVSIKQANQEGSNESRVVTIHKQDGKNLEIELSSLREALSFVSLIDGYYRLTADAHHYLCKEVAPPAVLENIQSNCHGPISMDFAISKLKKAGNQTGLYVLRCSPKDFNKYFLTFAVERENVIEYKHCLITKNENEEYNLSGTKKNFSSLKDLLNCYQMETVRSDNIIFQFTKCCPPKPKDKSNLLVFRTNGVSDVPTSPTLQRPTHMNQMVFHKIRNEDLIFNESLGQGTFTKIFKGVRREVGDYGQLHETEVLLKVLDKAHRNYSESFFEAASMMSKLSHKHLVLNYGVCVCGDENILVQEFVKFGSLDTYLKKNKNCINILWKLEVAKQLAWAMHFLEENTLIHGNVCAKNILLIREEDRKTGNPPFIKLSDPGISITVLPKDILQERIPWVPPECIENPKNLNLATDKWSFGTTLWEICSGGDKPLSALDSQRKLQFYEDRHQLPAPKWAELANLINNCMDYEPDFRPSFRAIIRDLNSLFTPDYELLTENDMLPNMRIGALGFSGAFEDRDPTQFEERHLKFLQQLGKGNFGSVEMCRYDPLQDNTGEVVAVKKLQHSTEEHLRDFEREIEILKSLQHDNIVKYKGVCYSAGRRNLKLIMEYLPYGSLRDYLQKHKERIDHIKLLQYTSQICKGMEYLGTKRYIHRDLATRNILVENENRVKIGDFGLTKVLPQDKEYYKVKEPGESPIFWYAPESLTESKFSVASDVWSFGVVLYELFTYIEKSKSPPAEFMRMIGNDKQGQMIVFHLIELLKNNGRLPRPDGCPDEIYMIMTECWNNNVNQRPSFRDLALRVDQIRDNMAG
Sequence of CaMK1 (human) (Q14012 whole entry, looked up): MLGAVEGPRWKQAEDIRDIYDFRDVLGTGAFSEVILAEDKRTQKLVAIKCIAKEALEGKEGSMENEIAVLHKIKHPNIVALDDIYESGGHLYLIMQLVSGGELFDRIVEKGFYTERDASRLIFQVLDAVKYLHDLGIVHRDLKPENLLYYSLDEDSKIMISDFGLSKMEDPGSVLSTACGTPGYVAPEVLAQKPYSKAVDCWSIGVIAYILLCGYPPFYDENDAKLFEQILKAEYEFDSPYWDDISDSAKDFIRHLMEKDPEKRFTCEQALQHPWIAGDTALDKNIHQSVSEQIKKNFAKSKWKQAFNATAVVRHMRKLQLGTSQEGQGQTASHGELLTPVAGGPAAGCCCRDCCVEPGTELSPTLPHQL

O=C(N[C@@H](COc1ccc2[nH]c(=O)[nH]c2c1)c1ccccc1)c1cccn(Cc2ccc(F)c(F)c2)c1=O
residual activity (SRC (human); compound 0.1 µM): 103% | residual activity (SRC (human); compound 1.0 µM): 100% | residual activity (SRC (human); compound 10.0 µM): 75% | residual activity (CaMK1 (human); compound 0.1 µM): 95% | residual activity (CaMK1 (human); compound 1.0 µM): 92% | residual activity (CaMK1 (human); compound 10.0 µM): 51% | residual activity (PHKG1 (human); compound 0.1 µM): 100% | residual activity (PHKG1 (human); compound 1.0 µM): 117% | residual activity (JAK2 JH1 JH2 (human); compound 0.1 µM): 98% | residual activity (JAK2 JH1 JH2 (human); compound 1.0 µM): 99% | residual activity (JAK2 JH1 JH2 (human); compound 10.0 µM): 101% | residual activity (LCK (mouse); compound 0.1 µM): 109% | residual activity (LCK (mouse); compound 1.0 µM): 101% | residual activity (LCK (mouse); compound 10.0 µM): 91% | residual activity (DYRK1A (human); compound 0.1 µM): 113% | residual activity (DYRK1A (human); compound 1.0 µM): 97% | residual activity (DYRK1A (human); compound 10.0 µM): 79% | residual activity (PRKACA (human); compound 0.1 µM): 105% | residual activity (PRKACA (human); compound 1.0 µM): 112% | residual activity (PRKACA (human); compound 10.0 µM): 111% | residual activity (PIM2 (human); compound 0.1 µM): 107% | residual activity (PIM2 (human); compound 1.0 µM): 105% | residual activity (PIM2 (human); compound 10.0 µM): 85% | residual activity (CDK2 CCNA2 (human); compound 0.1 µM): 90% | residual activity (CDK2 CCNA2 (human); compound 1.0 µM): 91% | residual activity (CDK2 CCNA2 (human); compound 10.0 µM): 95% | residual activity (CAMKK2 (human); compound 1.0 µM): 104% | residual activity (CAMKK2 (human); compound 10.0 µM): 90% | residual activity (YES1 (human); compound 0.1 µM): 104% | residual activity (YES1 (human); compound 1.0 µM): 105% | residual activity (YES1 (human); compound 10.0 µM): 95% | residual activity (MAP3K9 (human); compound 0.1 µM): 119% | residual activity (MAP3K9 (human); compound 1.0 µM): 102% | residual activity (MAP3K9 (human); compound 10.0 µM): 50% | residual activity ([1]; compound 0.1 µM): 98% | residual activity ([1]; compound 1.0 µM): 96% | residual activity ([1]; compound 10.0 µM): 77% | residual activity (MAPK10 (human); compound 0.1 µM): 101% | residual activity (MAPK10 (human); compound 1.0 µM): 90% | residual activity (MAPK10 (human); compound 10.0 µM): 101% | residual activity (MAPK13 (human); compound 0.1 µM): 91% | residual activity (MAPK13 (human); compound 1.0 µM): 97% | residual activity (MAPK13 (human); compound 10.0 µM): 94% | residual activity (SYK (human); compound 0.1 µM): 99% | residual activity (SYK (human); compound 1.0 µM): 88% | residual activity (SYK (human); compound 10.0 µM): 82% | residual activity (PAK4 (human); compound 0.1 µM): 102% | residual activity (PAK4 (human); compound 1.0 µM): 101% | residual activity (PAK4 (human); compound 10.0 µM): 67% | residual activity (INSRR (human); compound 0.1 µM): 101% | residual activity (INSRR (human); compound 1.0 µM): 114% | residual activity (INSRR (human); compound 10.0 µM): 105% | residual activity (RIPK2 (human); compound 0.1 µM): 102% | residual activity (RIPK2 (human); compound 1.0 µM): 105% | residual activity (RIPK2 (human); compound 10.0 µM): 98% | residual activity (MST4 (human); compound 0.1 µM): 101% | residual activity (MST4 (human); compound 1.0 µM): 117% | residual activity (MST4 (human); compound 10.0 µM): 86% | residual activity (PRKAA1 or PRKAA2 (rat); compound 0.1 µM): 97% | residual activity (PRKAA1 or PRKAA2 (rat); compound 1.0 µM): 99% | residual activity (PRKAA1 or PRKAA2 (rat); compound 10.0 µM): 99% | residual activity (NUAK1 (human); compound 0.1 µM): 115% | residual activity (NUAK1 (human); compound 1.0 µM): 107% | residual activity (NUAK1 (human); compound 10.0 µM): 98% | residual activity (CSNK2A1 (human); compound 0.1 µM): 111% | residual activity (CSNK2A1 (human); compound 1.0 µM): 103% | residual activity (CSNK2A1 (human); compound 10.0 µM): 107% | residual activity (IGF1R (human); compound 0.1 µM): 105% | residual activity (IGF1R (human); compound 1.0 µM): 105% | residual activity (IGF1R (human); compound 10.0 µM): 103% | residual activity (EPHB3 (human); compound 0.1 µM): 114% | residual activity (EPHB3 (human); compound 1.0 µM): 119% | residual activity (EPHB3 (human); compound 10.0 µM): 113% | residual activity (MINK1 (human); compound 0.1 µM): 92% | residual activity (MINK1 (human); compound 1.0 µM): 100% | residual activity (MINK1 (human); compound 10.0 µM): 87% | residual activity (MAP3K11 (human); compound 0.1 µM): 104% | residual activity (MAP3K11 (human); compound 1.0 µM): 97% | residual activity (MAP3K11 (human); compound 10.0 µM): 46% | residual activity (MKNK1 (human); compound 0.1 µM): 106% | residual activity (MKNK1 (human); compound 1.0 µM): 99% | residual activity (MKNK1 (human); compound 10.0 µM): 99% | residual activity (AURKB (human); compound 0.1 µM): 105% | residual activity (AURKB (human); compound 1.0 µM): 104% | residual activity (AURKB (human); compound 10.0 µM): 64% | residual activity (INSR (human); compound 0.1 µM): 99% | residual activity (INSR (human); compound 1.0 µM): 95% | residual activity (INSR (human); compound 10.0 µM): 93% | residual activity (PRKCZ (human); compound 0.1 µM): 104% | residual activity (PRKCZ (human); compound 1.0 µM): 106% | residual activity (PRKCZ (human); compound 10.0 µM): 88% | residual activity (CHEK1 (human); compound 0.1 µM): 96% | residual activity (CHEK1 (human); compound 1.0 µM): 94% | residual activity (CHEK1 (human); compound 10.0 µM): 95% | residual activity (NTRK1 (human); compound 0.1 µM): 113% | residual activity (NTRK1 (human); compound 1.0 µM): 98% | residual activity (NTRK1 (human); compound 10.0 µM): 78% | residual activity (MAP2K1 (human); compound 0.1 µM): 100% | residual activity (MAP2K1 (human); compound 10.0 µM): 95% | residual activity (MARK3 (human); compound 0.1 µM): 99% | residual activity (MARK3 (human); compound 1.0 µM): 93% | residual activity (MARK3 (human); compound 10.0 µM): 83% | residual activity (MARK4 (human); compound 0.1 µM): 150% | residual activity (MARK4 (human); compound 1.0 µM): 143% | residual activity (MARK4 (human); compound 10.0 µM): 83%
